From US20070128217A1 (priority 2003, published 2007)

Assays:
[1] = test system: rabbit serum obtained by immunizing a rabbit with the SARS-CoV strain Frankfurt 1; format: binding; parameters: Binding of a rabbit serum to linear peptides / Binding of a rabbit serum to looped peptides / Rabbit serum linear peptides / Rabbit serum looped peptides / Binding of a rabbit serum to linear peptides of protein N of SARS-CoV Urbani (Rabbit serum linear peptides) / Binding of a rabbit serum to looped/cyclic peptides of protein N of SARS-CoV Urbani (Rabbit serum looped peptides): unit not given here
[2] = test system: antibodies in sera from SARS patients (sera 1a, 1b, 2, 6, 37, 62, London, SARS-yellow, SARS-green); format: binding, human; parameters: Binding of serum 6 to linear peptides of protein X1 of SARS-CoV Urbani / Binding of serum 37 to linear peptides of protein X1 of SARS-CoV Urbani / Binding of serum 6 to looped/cyclic peptide (PEPSCAN-ELISA) / Binding of serum 37 to looped/cyclic peptide (PEPSCAN-ELISA) / Binding of serum 37 to looped/cyclic peptides of protein X1 of SARS-CoV Urbani / Binding of serum 6 to linear peptides of protein X2 / Binding of serum 37 to linear peptides of protein X2 / Binding of serum 37 to looped/cyclic peptides of protein X2 of SARS-CoV Urbani / Binding of serum 6 to linear peptides of protein M of SARS-CoV Urbani / Binding of serum 37 to linear peptides of protein M of SARS-CoV Urbani / Binding of serum 6 to looped/cyclic peptides of protein M of SARS-CoV Urbani / Binding of serum 37 to looped/cyclic peptides of protein M of SARS-CoV Urbani / Binding of serum 6 to linear peptides of protein X3 of SARS-CoV Urbani / Binding of serum 37 to linear peptides of protein X3 of SARS-CoV Urbani / Binding of serum 37 to looped/cyclic peptides of protein X3 of SARS-CoV Urbani / Binding of serum 6 to linear peptides of protein X4 of SARS-CoV Urbani / Binding of serum 37 to linear peptides of protein X4 of SARS-CoV Urbani / Binding of serum 37 to looped/cyclic peptides of protein X4 of SARS-CoV Urbani / Binding of serum 6 to linear peptides of protein X5 of SARS-CoV Urbani / Binding of serum 37 to linear peptides of protein X5 of SARS-CoV Urbani / Binding of serum 37 to looped/cyclic peptides of protein X5 of SARS-CoV Urbani / Binding of serum 6 to linear peptides of protein N of SARS-CoV Urbani / Binding of serum 37 to linear peptides of protein N of SARS-CoV Urbani / Binding of serum 6 to linear peptide (PEPSCAN-ELISA) / Binding of serum 1a to looped/cyclic peptides of protein N of SARS-CoV Urbani / Binding of serum 1b to looped/cyclic peptides of protein N of SARS-CoV Urbani / Binding of serum 2 to looped/cyclic peptides of protein N of SARS-CoV Urbani / Binding of serum 6 to looped/cyclic peptides of protein N of SARS-CoV Urbani / Binding of serum 37 to looped/cyclic peptides of protein N of SARS-CoV Urbani / Binding of serum 62 to looped/cyclic peptides of protein N of SARS-CoV Urbani / Binding of serum London to looped/cyclic peptides of protein N of SARS-CoV Urbani / Binding of serum SARS-green to looped/cyclic peptides of protein N of SARS-CoV Urbani: unit not given here
[3] = test system: control sera (pooled serum of ten healthy LUMC hospital workers; commercial negative donor pooled serum from the Dutch bloodbank); format: binding, human; parameters: Binding of Control serum LUMC to linear peptides / Binding of Control serum Blood-bank to linear peptides / Binding of Control serum LUMC to looped peptides / Binding of Control Serum Blood-Bank to Looped peptides / Binding of Control serum LUMC to linear peptides of the protein M of SARS-CoV Urbani / Binding of Control serum Blood-bank to linear peptides of the protein M of SARS-CoV Urbani / Binding of Control serum LUMC to looped peptides of the protein M of SARS-CoV Urbani / Binding of Control Serum Blood-Bank to Looped peptides of the protein M of SARS-CoV Urbani: unit not given here

KHKKVSTNLCTHSFR
Binding of a rabbit serum to linear peptides [1]: 0.4
Binding of a rabbit serum to looped peptides [1]: 0.0
Binding of serum 1a to looped/cyclic peptides of protein X2 of SARS-CoV Urbani [2]: 0.5
Binding of serum 1b to looped/cyclic peptides of protein X2 of SARS-CoV Urbani [2]: 0.0
Binding of serum 2 to looped/cyclic peptides of protein X2 of SARS-CoV Urbani [2]: 0.7
Binding of serum 6 to looped/cyclic peptides of protein X2 of SARS-CoV Urbani [2]: 0.4
Binding of serum 37 to looped/cyclic peptides of protein X2 of SARS-CoV Urbani [2]: 0.2
Binding of serum 62 to looped/cyclic peptides of protein X2 of SARS-CoV Urbani [2]: 0.4
Binding of serum London to looped/cyclic peptides of protein X2 of SARS-CoV Urbani [2]: 0.1
Binding of serum SARS-green to looped/cyclic peptides of protein X2 of SARS-CoV Urbani [2]: 0.3
Binding of serum SARS-yellow to looped/cyclic peptides of protein X2 of SARS-CoV Urbani [2]: 0.1
Recognition of the peptide by sera of SARS-CoV infected individuals, and form (linear, looped/cyclic) in which it is recognized [2]: recognized in linear form
Binding of Control Serum Blood-Bank to Looped peptides [3]: 0.5
Binding of Control serum Blood-bank to linear peptides [3]: 0.9
Binding of Control serum LUMC to linear peptides [3]: 0.6
Binding of Control serum LUMC to looped peptides [3]: 0.7

KKVSTNLCTHSFRKK
Binding of a rabbit serum to linear peptides [1]: 0.3
Binding of a rabbit serum to looped peptides [1]: 0.1
Binding of serum 1a to looped/cyclic peptides of protein X2 of SARS-CoV Urbani [2]: 0.5
Binding of serum 1b to looped/cyclic peptides of protein X2 of SARS-CoV Urbani [2]: 0.3
Binding of serum 2 to looped/cyclic peptides of protein X2 of SARS-CoV Urbani [2]: 0.7
Binding of serum 6 to looped/cyclic peptides of protein X2 of SARS-CoV Urbani [2]: 0.5
Binding of serum 37 to looped/cyclic peptides of protein X2 of SARS-CoV Urbani [2]: 0.5
Binding of serum 62 to looped/cyclic peptides of protein X2 of SARS-CoV Urbani [2]: 0.6
Binding of serum London to looped/cyclic peptides of protein X2 of SARS-CoV Urbani [2]: 0.2
Binding of serum SARS-green to looped/cyclic peptides of protein X2 of SARS-CoV Urbani [2]: 0.3
Binding of serum SARS-yellow to looped/cyclic peptides of protein X2 of SARS-CoV Urbani [2]: 0.5
Recognition of the peptide by sera of SARS-CoV infected individuals, and form (linear, looped/cyclic) in which it is recognized [2]: recognized in linear form
Binding of Control Serum Blood-Bank to Looped peptides [3]: 0.5
Binding of Control serum Blood-bank to linear peptides [3]: 0.7
Binding of Control serum LUMC to linear peptides [3]: 0.4
Binding of Control serum LUMC to looped peptides [3]: 0.8

KLVFLWLLWPVTLAC
Rabbit serum linear peptides [1]: 0.1
Rabbit serum looped peptides [1]: 0.0
Binding of serum 1a to linear peptides of protein M of SARS-CoV Urbani [2]: 0.7
Binding of serum 1a to looped/cyclic peptides of protein M of SARS-CoV Urbani [2]: 0.6
Binding of serum 1b to linear peptides of protein M of SARS-CoV Urbani [2]: 0.6
Binding of serum 1b to looped/cyclic peptides of protein M of SARS-CoV Urbani [2]: 0.2
Binding of serum 2 to linear peptides of protein M of SARS-CoV Urbani [2]: 0.5
Binding of serum 2 to looped/cyclic peptides of protein M of SARS-CoV Urbani [2]: 0.6
Binding of serum 6 to linear peptides of protein M of SARS-CoV Urbani [2]: 0.4
Binding of serum 6 to looped/cyclic peptides of protein M of SARS-CoV Urbani [2]: 0.7
Binding of serum 37 to linear peptides of protein M of SARS-CoV Urbani [2]: 0.5
Binding of serum 37 to looped/cyclic peptides of protein M of SARS-CoV Urbani [2]: 0.6
Binding of serum 62 to linear peptides of protein M of SARS-CoV Urbani [2]: 0.5
Binding of serum 62 to looped/cyclic peptides of protein M of SARS-CoV Urbani [2]: 0.6
Binding of serum London to linear peptides of protein M of SARS-CoV Urbani [2]: 0.4
Binding of serum London to looped/cyclic peptides of protein M of SARS-CoV Urbani [2]: 0.2
Binding of serum SARS-green to linear peptides of protein M of SARS-CoV Urbani [2]: 0.4
Binding of serum SARS-green to looped/cyclic peptides of protein M of SARS-CoV Urbani [2]: 0.3
Binding of serum SARS-yellow to linear peptides of protein M of SARS-CoV Urbani [2]: 0.2
Binding of serum SARS-yellow to looped/cyclic peptides of protein M of SARS-CoV Urbani [2]: 0.5
Binding of Control Serum Blood-Bank to Looped peptides of the protein M of SARS-CoV Urbani [3]: 0.7
Binding of Control serum Blood-bank to linear peptides of the protein M of SARS-CoV Urbani [3]: 0.7
Binding of Control serum LUMC to linear peptides of the protein M of SARS-CoV Urbani [3]: 0.5
Binding of Control serum LUMC to looped peptides of the protein M of SARS-CoV Urbani [3]: 0.6

KMLHSSSLTSLLKTH
Binding of a rabbit serum to linear peptides [1]: 0.2
Binding of a rabbit serum to looped peptides [1]: 0.2
Binding of serum 1a to linear peptides of protein X2 [2]: 0.6
Binding of serum 1a to looped/cyclic peptides of protein X2 of SARS-CoV Urbani [2]: 0.3
Binding of serum 1b to linear peptides of protein X2 [2]: 0.5
Binding of serum 1b to looped/cyclic peptides of protein X2 of SARS-CoV Urbani [2]: 0.4
Binding of serum 2 to linear peptides of protein X2 [2]: 0.5
Binding of serum 2 to looped/cyclic peptides of protein X2 of SARS-CoV Urbani [2]: 0.2
Binding of serum 6 to linear peptides of protein X2 [2]: 0.6
Binding of serum 6 to looped/cyclic peptides of protein X2 of SARS-CoV Urbani [2]: 0.2
Binding of serum 37 to linear peptides of protein X2 [2]: 0.5
Binding of serum 37 to looped/cyclic peptides of protein X2 of SARS-CoV Urbani [2]: 0.2
Binding of serum 62 to linear peptides of protein X2 [2]: 0.6
Binding of serum 62 to looped/cyclic peptides of protein X2 of SARS-CoV Urbani [2]: 0.3
Binding of serum London to linear peptides of protein X2 [2]: 0.9
Binding of serum London to looped/cyclic peptides of protein X2 of SARS-CoV Urbani [2]: 0.2
Binding of serum SARS-green to linear peptides of protein X2 [2]: 0.6
Binding of serum SARS-green to looped/cyclic peptides of protein X2 of SARS-CoV Urbani [2]: 0.7
Binding of serum SARS-yellow to linear peptides of protein X2 [2]: 0.4
Binding of serum SARS-yellow to looped/cyclic peptides of protein X2 of SARS-CoV Urbani [2]: 0.3
Binding of Control Serum Blood-Bank to Looped peptides [3]: 0.3
Binding of Control serum Blood-bank to linear peptides [3]: 0.7
Binding of Control serum LUMC to linear peptides [3]: 0.5
Binding of Control serum LUMC to looped peptides [3]: 0.4

KRWQLALYKGFQFIC
Binding of a rabbit serum to linear peptides [1]: 0.1
Binding of a rabbit serum to looped peptides [1]: 0.8
Binding of serum 1a to linear peptides of protein X1 of SARS-CoV Urbani [2]: 0.6
Binding of serum 1a to looped/cyclic peptide (PEPSCAN-ELISA) [2]: 0.6
Binding of serum 1b to linear peptides of protein X1 of SARS-CoV Urbani [2]: 0.5
Binding of serum 1b to looped/cyclic peptide (PEPSCAN-ELISA) [2]: 0.4
Binding of serum 2 to linear peptides of protein X1 of SARS-CoV Urbani [2]: 0.5
Binding of serum 2 to looped/cyclic peptide (PEPSCAN-ELISA) [2]: 0.5
Binding of serum 6 to linear peptides of protein X1 of SARS-CoV Urbani [2]: 0.6
Binding of serum 6 to looped/cyclic peptide (PEPSCAN-ELISA) [2]: 0.8
Binding of serum 37 to linear peptides of protein X1 of SARS-CoV Urbani [2]: 0.6
Binding of serum 37 to looped/cyclic peptide (PEPSCAN-ELISA) [2]: 0.6
Binding of serum 62 to linear peptides of protein X1 of SARS-CoV Urbani [2]: 0.5
Binding of serum 62 to looped/cyclic peptide (PEPSCAN-ELISA) [2]: 0.6
Binding of serum London to linear peptides of protein X1 of SARS-CoV Urbani [2]: 0.2
Binding of serum London to looped/cyclic peptide (PEPSCAN-ELISA) [2]: 1.1
Binding of serum SARS-green to linear peptides of protein X1 of SARS-CoV Urbani [2]: 0.1
Binding of serum SARS-green to looped/cyclic peptide (PEPSCAN-ELISA) [2]: 0.3
Binding of serum SARS-yellow to linear peptides of protein X1 of SARS-CoV Urbani [2]: 0.2
Binding of serum SARS-yellow to looped/cyclic peptide (PEPSCAN-ELISA) [2]: 0.5
Binding of Control Serum Blood-Bank to Looped peptides [3]: 0.7
Binding of Control serum Blood-bank to linear peptides [3]: 0.6
Binding of Control serum LUMC to linear peptides [3]: 0.5
Binding of Control serum LUMC to looped peptides [3]: 0.7
